Source: US6472401B2, “Methods for the treatment of vascular disorders” (Schering Corporation, priority 1999, dated 2002)
Read-outs that look alike come from different tables or passages of the source.

Key:
[1] = Administration of antihistamine to patients suffering from clinical depression (Example 2); settings: for recurrence of symptoms of depression: patients known to have suffered from depression, not currently experiencing symptoms, administered indefinitely; for reduction of symptoms of depression: patients suffering from depression; for recurrence or worsening of symptoms of depression: responders continue treatment at their respective dosage level
Method: Patients suffering from clinical depression are administered a non-sedating antihistamine (loratadine) or a low-sedating antihistamine (cetirizine) to relieve the symptoms of depression. Six treatment groups are contemplated.

[2] = for recurrence of symptoms of depression: administered indefinitely
[3] = patients known to have suffered from depression and subject to allergic rhinitis, no current symptoms of either
[4] = patients known to have suffered from depression and suffering from allergic rhinitis, no current depression symptoms
[5] = patients suffering from depression and allergic rhinitis
[6] = patients suffering from depression, subject to allergic rhinitis but not currently suffering from it
[7] = responders subject to allergic rhinitis but without current rhinitis symptoms continue treatment at their respective dosage level
[8] = responders suffering from allergic rhinitis continue treatment at their respective dosage level

SMILES	recurrence of symptoms of depression [1]	reduction of symptoms of depression [1]	recurrence or worsening of symptoms of depression [1]	recurrence of symptoms of depression [2, 3]	recurrence of symptoms of depression [2, 4]	reduction of symptoms of depression [2, 5]	reduction of symptoms of depression [2, 6]	recurrence or worsening of symptoms of depression [2, 7]	recurrence or worsening of symptoms of depression [2, 8]
CCOC(=O)N1CCC(=C2c3ccc(Cl)cc3CCc3cccnc32)CC1 [loratadine]	a significant number of patients do not experience recurrence of symptoms of depression	A significant number of patients experience a reduction of their symptoms of depression	a significant number of patients do not experience recurrence or worsening of symptoms of depression	a significant number of patients do not experience recurrence of symptoms of depression	a significant number of patients do not experience recurrence of symptoms of depression	A significant number of patients experience a reduction of their symptoms of depression	A significant number of patients experience a reduction of their symptoms of depression	a significant number of patients do not experience recurrence or worsening of symptoms of depression	a significant number of patients do not experience recurrence or worsening of symptoms of depression
O=C(O)COCCN1CCN(C(c2ccccc2)c2ccc(Cl)cc2)CC1 (stereo not drawn) [cetirizine]	a significant number of patients do not experience recurrence of symptoms of depression	A significant number of patients experience a reduction of their symptoms of depression	a significant number of patients do not experience recurrence or worsening of symptoms of depression	a significant number of patients do not experience recurrence of symptoms of depression	a significant number of patients do not experience recurrence of symptoms of depression	A significant number of patients experience a reduction of their symptoms of depression	A significant number of patients experience a reduction of their symptoms of depression	a significant number of patients do not experience recurrence or worsening of symptoms of depression	a significant number of patients do not experience recurrence or worsening of symptoms of depression
